The values below come from patent publication US20120196895A1, “NOVEL FORMS OF EPERISONE” (Bionevia Pharmaceuticals, Inc., priority 2009, published 2012).

The data set is described as follows: Solubility determinations of crystalline forms of racemic eperisone in water. It counts as physicochemical. To be noted: for Solubility: HPLC-grade water, slurry on rotating wheel 46.5 hours at ambient temperature (about 19° C.), filtrate dried and weighed; for Relative solubility among the forms: ranking of the Table 10 solubilities in water. As to the method:
The solubilities of the crystalline forms of racemic eperisone were determined as follows. Each experiment was conducted in a one-dram vial by adding weighed amounts of solid salt in portions to a weighed amount of HPLC-grade water until a slurry was obtained. In the case of the mesylate salt, a slurry was not obtained; solid addition was stopped while a solution was still present. Each vial was capped and placed on a rotating wheel for 46.5 hours at ambient temperature. Each vial was removed from the wheel. The ambient temperature at the time of removal was about 19° C. The contents of each vial were vacuum filtered through Whatman Grade 1 filter paper. Solids adhering to the inside of the vial were not recovered. Each filtrate was weighed, dried under diaphragm pump pressure over phosphorus pentoxide, and the resulting solid residue was weighed. Each filter cake was allowed to dry in the air overnight and was weighed.

Structures can show the parent of a compound that is named as a salt.

In the case of `CCc1ccc(C(=O)C(C)CN2CCCCC2)cc1` (racemic) [Maleate, (2RS)-1-(4-ethylphenyl)-2-methyl-3-piperidin-1-yl-propan-1-one], the Solubility is on record as 20.7 mg/mL.

As to `CCc1ccc(C(=O)C(C)CN2CCCCC2)cc1` (racemic) [Hydrochloride, (2RS)-1-(4-ethylphenyl)-2-methyl-3-piperidin-1-yl-propan-1-one, reference compound], the Solubility is recorded as 210.7 mg/mL.

As for `CCc1ccc(C(=O)C(C)CN2CCCCC2)cc1` (racemic) [Fumarate, (2RS)-1-(4-ethylphenyl)-2-methyl-3-piperidin-1-yl-propan-1-one], the Solubility was 16.8 mg/mL. In addition, the “Relative solubility among the forms” value (listed as racemic eperisone fumarate) is given as “least soluble”.

In turn, `CCc1ccc(C(=O)C(C)CN2CCCCC2)cc1` (racemic) [Succinate, (2RS)-1-(4-ethylphenyl)-2-methyl-3-piperidin-1-yl-propan-1-one] yielded a Solubility of 114.7 mg/mL.

Consider `CCc1ccc(C(=O)C(C)CN2CCCCC2)cc1` (racemic) [Mesylate, (2RS)-1-(4-ethylphenyl)-2-methyl-3-piperidin-1-yl-propan-1-one], for which the Solubility is above 392.2 mg/mL. For the same molecule, the “Relative solubility among the forms” value (listed as racemic eperisone mesylate) is recorded as “most soluble”.
